Here are results for 7 compounds from article PMC5291322, “Development of Cell‐Permeable, Non‐Helical Constrained Peptides to Target a Key Protein–Protein Interaction in Ovarian Cancer” (Angewandte Chemie (International Ed. in English), 2016).

Non-standard residues stand in square brackets, D forms with d. Residues, ends and D or L forms follow the SMILES beside them. *: point of attachment. 5TAMRA = CN(C)c1ccc2c(c1)Oc1cc(N(C)C)ccc1C21OC(=O)c2cc(C(=O)*)ccc21; Dap(N3) = [N-]=[N+]=NC[C@H](N)C(=O)O; Aha = [N-]=[N+]=NCC[C@H](N)C(=O)O; Ahx = NCCCCCC(=O)O

By Kd is commonly meant a measure of binding affinity in units of concentration.

The target in one data set is T1, mImportin α1 ΔIBB (Mus musculus, UniProt P52293).
T1 construct: made in house; host or cells: E. coli BL21 (DE3) CodonPlus-RIL
As to the kind of experiment: Direct fluorescence polarisation (FP) binding assay. As to conditions: 60 nM TAMRA-labelled peptide, 15-point 2.0-fold serial dilutions of mImportin α1 ΔIBB, 20 mM HEPES pH 8, 200 mM NaCl, 15 min at room temperature, ex 540/em 590 nm, one-site model, triplicates, read-out: Kd, direct FP assay binding affinity. How it is done: The unconstrained peptides Pep1 and Pep2, as well as four constrained peptides, were synthesized. Their binding affinities for mImportin α1 ΔIBB were evaluated in fluorescence polarization assays (Figure 5 C). […]
Direct Fluorescence Polarisation Assay
Dissociation constants (Kd) for the interaction of TAMRA-5-labelled stapled peptides with mImportin α1 ΔIBB were determined by direct fluorescence polarisation (FP) measurement. TAMRA-5 belongs to the family of rhodamine dyes and has been used extensively for the study of PPIs and DNA-protein interactions by FP assays.[31-32] The mImportin α1 ΔIBB isoform was used since it is well characterised and has been used previously.[33] A one-site binding model was assumed with mImportin α1. mImportin α1 ΔIBB protein was purified in FP buffer (20 mM HEPES (pH 8), 200 mM NaCl) and 1 mM stock solutions of peptides were made up in FP buffer with 3 % v/v DMSO. Accurate mImportin α1 ΔIBB and stapled peptide concentrations were determined by amino acid analysis (PNAC facilities, Department of Biochemistry, University of Cambridge). 15-point dose-response curves were constructed using 2.0-fold serial dilutions of mImportin α1 ΔIBB in a mixture with a final concentration of 60 nM TAMRA-labelled peptide. 20 μL reaction volumes were pipetted into […] black polystyrene assay plates (Corning 384 Well Low Flange Black Flat
A general note: In fluorescence polarisation assays a small probe gives low polarisation when free and higher when bound to something large.

A further data set relates to JHOC9 cells. As to the kind of experiment: Cell permeability assay, live-cell confocal fluorescence microscopy. The class given is cell-based. As to conditions: 10 μM TAMRA-labelled peptide in medium, 2 h incubation, Hoechst 33342 in the final 30 min, PBS wash, TAMRA fluorescence read-out, qualitative. The text has this:
Live‐cell fluorescence microscopy studies were undertaken to assess the cell permeability of the synthesized TAMRA‐labelled linear and constrained peptides (Figure 7).
Figure 7 Cell‐permeability studies for the linear and constrained peptides using JHOC9 cells. Images were taken on a Leica tandem confocal microscope using a 40 X objective.
HEK293T cells were cultivated in Dulbecco’s Modified Eagle medium (DMEM) (1X) supplemented with 5 % foetal bovine serum (FBS) (Invitrogen) and 0.5 % penicillin/streptomycin (P/S). CCC cell lines PEO1, JHOC5, JHOC7, JHOC9, OVISE, SKOV3 and Normal Ovarian Surface Epithelial (IOSE) cells were grown in RPMI 1640 medium (1X) supplemented with 10 % FBS and 1 % P/S. All cell lines were maintained at 37 °C in 5 % CO2 and were mycoplasma tested on a regular basis (Biorepository Core, CRUK CI, Cambridge). Cell counts were conducted using the Vi-CELL Cell Viability Analyzer. […]
Cell permeability assay and confocal microscopy
Cells were grown in chambered coverslips (μ–Slide 8 Well ibiTreat, Ibidi) for live-cell imaging. When the desired degree of confluency was reached, the medium was replaced with 10 μM solutions of constrained peptides in medium. For live-cell imaging, cells were incubated with the constrained peptide solutions for 2 h and during the final 30 min, Hoechst stain 33342 (1 μM, Thermo Fisher Scientific) was added. Cells were washed with PBS before live-cell imaging. Fresh medium was added and cells were imaged live using a Leica Tandem confocal microscope. Images were generated as a maximum intensity projection of five z-stacked […]
Aldrich, Mission RNAi, TRC2-pLKO-puro Vector) were used. All plasmids were confirmed by restriction digest and agarose gel electrophoresis.
For each transfection sample 16 μg transfer vector, 10.4 μg pMDL/pRRE, 4 μg pRSV-Rev and 5.6 μg pVSV-G were used. Lentiviruses were produced in the HEK293T packaging cell line. The day before transfection, 16 x 10^6 HEK293T cells were plated in […] (Corning) using Opti-MEM reduced-serum medium (30 mL, 1 X, Invitrogen) so that cells were 90–95 % confluent on the day of transfection. After 24 h the medium was removed and replaced with DMEM growth medium (16 mL, Invitrogen) containing serum. For each transfection sample DNA-Lipofectamine complexes were prepared as follows: In a sterile 15 mL tube, 16 μg transfer vector, 10.4 μg pMDL/pRRE, 4 μg pRSV-REV and 5.6 μg pVSV-G were diluted in Opti-MEM medium (5 mL). In a separate sterile 15 mL tube, Lipofectamine 2000 (115 μL, Life Technologies) was diluted in Opti-MEM medium (5 mL). Both solutions were incubated for 5 min at room temperature and then combined.
Incubation for 20 min at room temperature allowed DNA-Lipofectamine complexes to form, which were then added dropwise to each plate of HEK293T cells. […]

Take `CSCC[C@@H]1NC(=O)[C@H](CCCCN)NC(=O)[C@H](CCCCN)NC(=O)[C@@H](NC(=O)[C@@H](NC(=O)CCCCCNC(=O)c2ccc3c(c2)C(=O)OC32c3ccc(N(C)C)cc3Oc3cc(N(C)C)ccc32)[C@@H](C)O)Cn2cc(nn2)CNC(=O)NCc2cn(nn2)C[C@@H](C(=O)N[C@@H](CCCNC(=N)N)C(N)=O)NC(=O)[C@H](CCCNC(=N)N)NC(=O)[C@H](CCCNC(=N)N)NC1=O` [Pep1A]: the Kd on mImportin α1 ΔIBB turned out to be 95.9 ± 27.3 µM.

Take `CSCC[C@@H]1NC(=O)[C@H](CCCCN)NC(=O)[C@H](CCCCN)NC(=O)[C@@H](NC(=O)[C@@H](NC(=O)CCCCCNC(=O)c2ccc3c(c2)C(=O)OC32c3ccc(N(C)C)cc3Oc3cc(N(C)C)ccc32)[C@@H](C)O)Cn2cc(nn2)CCNC(=O)NCCc2cn(nn2)C[C@@H](C(=O)N[C@@H](CCCNC(=N)N)C(N)=O)NC(=O)[C@H](CCCNC(=N)N)NC(=O)[C@H](CCCNC(=N)N)NC1=O` [Pep1B]: the Kd at mImportin α1 ΔIBB worked out at 48.2 ± 4.88 µM. In the data set with JHOC9 cells, the cell permeability result is reported as “retained their cell permeability”. Consider `CSCC[C@@H]1NC(=O)[C@H](CCCCN)NC(=O)[C@H](CCCCN)NC(=O)[C@@H](NC(=O)[C@@H](NC(=O)CCCCCNC(=O)c2ccc3c(c2)C(=O)OC32c3ccc(N(C)C)cc3Oc3cc(N(C)C)ccc32)[C@@H](C)O)Cn2cc(nn2)CCCNC(=O)NCCCc2cn(nn2)C[C@@H](C(=O)N[C@@H](CCCNC(=N)N)C(N)=O)NC(=O)[C@H](CCCNC(=N)N)NC(=O)[C@H](CCCNC(=N)N)NC1=O` [Pep1C], for which the Kd at mImportin α1 ΔIBB was 55.9 ± 2.43 µM. For `CSCC[C@H](NC(=O)[C@H](CCCCN)NC(=O)[C@H](CCCCN)NC(=O)[C@H](CN=[N+]=[N-])NC(=O)[C@@H](NC(=O)CCCCCNC(=O)c1ccc2c(c1)C(=O)OC21c2ccc(N(C)C)cc2Oc2cc(N(C)C)ccc21)[C@@H](C)O)C(=O)N[C@@H](CCCNC(=N)N)C(=O)N[C@@H](CCCNC(=N)N)C(=O)N[C@@H](CN=[N+]=[N-])C(=O)N[C@@H](CCCNC(=N)N)C(N)=O` [Pep1] ({5TAMRA-Ahx}-T[Dap(N3)]KKMRR[Dap(N3)]R-NH2), the Kd at mImportin α1 ΔIBB came to 2.06 ± 0.07 µM. Moreover, in the data set on JHOC9 cells, the cell permeability result is “good cell permeability”. For `CSCC[C@@H]1NC(=O)[C@H](CCCCN)NC(=O)[C@H](CCCCN)NC(=O)[C@@H](NC(=O)[C@@H](NC(=O)CCCCCNC(=O)c2ccc3c(c2)C(=O)OC32c3ccc(N(C)C)cc3Oc3cc(N(C)C)ccc32)[C@@H](C)O)CCn2cc(nn2)CNC(=O)NCc2cn(nn2)CC[C@@H](C(=O)N[C@@H](CCCNC(=N)N)C(N)=O)NC(=O)[C@H](CCCNC(=N)N)NC(=O)[C@H](CCCNC(=N)N)NC1=O` [Pep2A], in that order: 4.54 µM and “retained their cell permeability”. For the compound `CSCC[C@H](NC(=O)[C@H](CCCCN)NC(=O)[C@H](CCCCN)NC(=O)[C@H](CCN=[N+]=[N-])NC(=O)[C@@H](NC(=O)CCCCCNC(=O)c1ccc2c(c1)C(=O)OC21c2ccc(N(C)C)cc2Oc2cc(N(C)C)ccc21)[C@@H](C)O)C(=O)N[C@@H](CCCNC(=N)N)C(=O)N[C@@H](CCCNC(=N)N)C(=O)N[C@@H](CCN=[N+]=[N-])C(=O)N[C@@H](CCCNC(=N)N)C(N)=O` [Pep2] ({5TAMRA-Ahx}-T[Aha]KKMRR[Aha]R-NH2), the Kd at mImportin α1 ΔIBB turned out to be 6.84 ± 0.26 µM. The cell permeability entry with JHOC9 cells is given as “good cell permeability”. As for `CN(C)c1ccc2c(-c3ccc(C(=O)O)cc3C(=O)[O-])c3ccc(N(C)C)cc3[o+]c2c1` [TAMRA-5, 5-CARBOXYTETRAMETHYLRHODAMINE, reference compound], the Kd on mImportin α1 ΔIBB is approximately 122 µM.
